PubChem BioAssay AID977605 (Broad Institute, 2014)
Activity calls are given as the source filed them.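 Rule for the calls: active = fitted curve reaches 40% activation below the top valid tested dose, in every test run; inconclusive = test runs disagree on the call; inactive = the rest, including effects opposite to the expected direction.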

assay: E-selectin inducers in HUVECs, dose response, imaging, HUVEC, cherry-picked samples (AID 977605); conditions: HUVEC E-selectin immunostaining, at 19.5 µM (top of the series), percent of TNF-alpha response over vehicle;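 note: signal is the share of imaged cells scored positive for E-selectin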

Question: With `COc1ccc(S(=O)(=O)N(C)C[C@@H]2Oc3ccc(NC(=O)c4ccncc4)cc3C(=O)N([C@@H](C)CO)C[C@@H]2C)cc1` as the compound, how does the activation read?
Answer: -0.183% (inactive)

Question: Which activation does the source give for `C[C@@H]1CN([C@H](C)CO)C(=O)c2cccc(NS(=O)(=O)c3cccs3)c2O[C@H]1CN(C)Cc1ccc(Cl)c(Cl)c1` here?
Answer: -0.024% (inactive)

Question: Which activation does the source give for `CC(C)NC(=O)Nc1cccc2c1O[C@H](CN(C)Cc1ccc(Cl)c(Cl)c1)[C@@H](C)CN([C@@H](C)CO)C2=O` here?
Answer: 0.01% (inactive)

Question: With `O=C(CCC(=O)N1CCOCC1)Nc1ccc(Cl)c(Cl)c1` as the compound, how does the activation read?
Answer: 0.295% (inactive)

Question: Which activation does the source give for `CC(C)NC(=O)Nc1ccc2c(c1)CC(=O)N([C@@H](C)CO)C[C@H](C)[C@H](CN(C)Cc1ccc(C(=O)O)cc1)O2` here?
Answer: 0.025% (inactive)

Question: Which activation does the source give for `CNC(=O)C[C@H]1CC[C@H]2[C@@H](COc3ccc(NC(=O)c4cccc(F)c4)cc3C(=O)N2C)O1` here?
Answer: 1.5% (inactive)

Question: Which activation does the source give for `COc1ccc(S(=O)(=O)Nc2cccc3c2O[C@H](CN(C)C(=O)Nc2cccc4ccccc24)[C@@H](C)CN([C@H](C)CO)C3=O)cc1` here?
Answer: -0.185% (inactive)

Question: Which activation does the source give for `CC(C)(C)c1ccc(NC(=O)N2CCCN(c3ccc([N+](=O)[O-])cn3)CC2)cc1` here?
Answer: 0.154% (inactive)

Question: With `C[C@@H]1CN([C@H](C)CO)C(=O)c2cccc(NC(=O)C3CC3)c2O[C@@H]1CN(C)Cc1ccccc1` as the compound, how does the activation read?
Answer: 0.474% (inactive)

Question: For `O=C(COc1ccc(Cl)cc1)Nc1nnc(S(=O)(=O)N2CCCCCC2)s1`, which activation is on record?
Answer: 1.11% (inactive)

Question: With `O=C(CN(CC1CCCO1)C(=O)CNS(=O)(=O)c1ccccc1)NCc1ccc(F)cc1` (stereo not drawn) as the compound, how does the activation read?
Answer: 1.46% (inactive)

Question: For `Cc1noc(C)c1S(=O)(=O)N(C)C[C@H]1Oc2ccc(NC(=O)Nc3ccc(F)cc3)cc2CC(=O)N([C@H](C)CO)C[C@@H]1C`, which activation is on record?
Answer: -0.001% (inactive)

Question: With `C[C@@H]1CN([C@@H](C)CO)C(=O)Cc2cc(NC(=O)Cn3cnnn3)ccc2O[C@H]1CN(C)C(=O)Nc1ccc(C(F)(F)F)cc1` as the compound, how does the activation read?
Answer: -0.025% (inactive)

Question: For `CC(C)NC(=O)N(C)C[C@@H]1Oc2ccc(NC(=O)Cc3cn(C)c4ccccc34)cc2C(=O)N([C@H](C)CO)C[C@H]1C`, which activation is on record?
Answer: 0.047% (inactive)

Question: With `C[C@@H]1CN([C@@H](C)CO)C(=O)Cc2cc(NC(=O)Cn3cnnn3)ccc2O[C@H]1CN(C)C(=O)Nc1ccc(F)cc1` as the compound, how does the activation read?
Answer: 0.031% (inactive)

Question: Which activation does the source give for `COc1ccc(NC(=O)N(C)C[C@H]2Oc3ccc(NC(=O)c4ccncc4)cc3CC(=O)N([C@H](C)CO)C[C@H]2C)cc1` here?
Answer: -0.01% (inactive)

Question: Which activation does the source give for `C[C@H]1CN([C@@H](C)CO)C(=O)c2cc(NC(=O)Nc3ccc4c(c3)OCO4)ccc2O[C@@H]1CN(C)S(=O)(=O)c1ccc(F)cc1` here?
Answer: -0.105% (inactive)

Question: For `C[C@H](CO)N1C[C@H](C)[C@H](CN(C)Cc2ccc(Oc3ccccc3)cc2)Oc2ccc(NC(=O)CCCCCC(=O)Nc3ccccc3N)cc2CC1=O`, which activation is on record?
Answer: 0.312% (inactive)

Question: With `C[C@@H]1CN([C@@H](C)CO)S(=O)(=O)c2ccc(C#CC3CC3)cc2O[C@@H]1CN(C)Cc1cccnc1` as the compound, how does the activation read?
Answer: -0.068% (inactive)

Question: With `CSc1nc2c(cnn2-c2ccc(C)c(C)c2)c(=O)[nH]1` as the compound, how does the activation read?
Answer: 0.487% (inactive)

Question: With `C[C@@H]1CN([C@H](C)CO)C(=O)Cc2cc(NS(=O)(=O)c3ccc(F)cc3)ccc2O[C@@H]1CN(C)S(=O)(=O)c1ccc(Cl)cc1` as the compound, how does the activation read?
Answer: 1.34% (inactive)

Question: With `C[C@@H]1CN([C@H](C)CO)C(=O)c2cc(NC(=O)CCC(F)(F)F)ccc2O[C@@H]1CN(C)Cc1ccc(C(F)(F)F)cc1` as the compound, how does the activation read?
Answer: 0.048% (inactive)

Question: For `O=C(Nc1cccc(S(=O)(=O)NCc2ccco2)c1)c1cccc(Cl)c1`, which activation is on record?
Answer: 0.285% (inactive)

Question: For `CCc1nc(=O)c(-c2ccccc2)c(C)n1-c1ccccc1`, which activation is on record?
Answer: -0.02% (inactive)

Question: With `CC(Sc1ncnc2sc(-c3ccccc3)cc12)C(=O)N1CCNC1=O` (stereo not drawn) as the compound, how does the activation read?
Answer: 0.007% (inactive)

Question: Which activation does the source give for `C[C@H](CO)N1C[C@H](C)[C@@H](CN(C)Cc2ccc(C(=O)O)cc2)Oc2ccc(NC(=O)Nc3ccc(F)cc3)cc2CC1=O` here?
Answer: 0.279% (inactive)

Question: For `Cc1cc(C)c2sc(NNC(=O)C3COc4ccccc4O3)nc2c1` (stereo not drawn), which activation is on record?
Answer: 0.141% (inactive)

Question: Which activation does the source give for `C[C@@H]1CN([C@H](C)CO)C(=O)c2cc(NC(=O)CCN3CCOCC3)ccc2O[C@@H]1CN(C)Cc1ccncc1` here?
Answer: -0.14% (inactive)

Question: With `Cc1noc(C)c1S(=O)(=O)Nc1ccc2c(c1)CC(=O)N([C@H](C)CO)C[C@@H](C)[C@H](CN(C)C(=O)Nc1cccc3ccccc13)O2` as the compound, how does the activation read?
Answer: -0.155% (inactive)

Question: With `C[C@@H]1CN([C@@H](C)CO)C(=O)c2cc(C#CC3CC3)cnc2O[C@@H]1CN(C)C(=O)c1ccccc1` as the compound, how does the activation read?
Answer: -0.295% (inactive)

Question: Which activation does the source give for `COc1ccc(S(=O)(=O)Nc2ccc3c(c2)CC(=O)N([C@H](C)CO)C[C@H](C)[C@@H](CN(C)C(=O)NC2CCCCC2)O3)cc1` here?
Answer: -0.163% (inactive)

Question: For `Cc1ccc(OCc2nc(-c3cccnc3)no2)cc1C`, which activation is on record?
Answer: -0.108% (inactive)

Question: Which activation does the source give for `C[C@@H]1CN([C@H](C)CO)C(=O)c2cc(NS(=O)(=O)c3ccccc3)ccc2O[C@H]1CN(C)C(=O)NC1CCCCC1` here?
Answer: 0.289% (inactive)

Question: Which activation does the source give for `COc1ccc(NC(=O)Nc2cccc3c2O[C@H](CN(C)C(=O)NC2CCCCC2)[C@H](C)CN([C@H](C)CO)C3=O)cc1` here?
Answer: 0.915% (inactive)

Question: For `CCCC#Cc1ccc2c(c1)O[C@@H](CN(C)S(=O)(=O)c1cccc(OC)c1)[C@@H](C)CN([C@@H](C)CO)S2(=O)=O`, which activation is on record?
Answer: 0.13% (inactive)

Question: Which activation does the source give for `COC(=O)c1ccc(CNC(=O)c2ccc(OC)c(S(=O)(=O)NC3CCCC3)c2)cc1` here?
Answer: -0.105% (inactive)

Question: Which activation does the source give for `COc1cccc(CNC(=O)c2cc3c(cc2Cl)N2CCCCCC2=NS3(=O)=O)c1` here?
Answer: -0.058% (inactive)

Question: With `C[C@H]1CN([C@@H](C)CO)C(=O)c2cccc(NS(C)(=O)=O)c2O[C@@H]1CN(C)Cc1ccc(Oc2ccccc2)cc1` as the compound, how does the activation read?
Answer: 0.027% (inactive)

Question: With `CCOC(=O)C1CCCN(C(=O)c2cc(S(=O)(=O)N(C)C)ccc2N2CCCC2)C1` (stereo not drawn) as the compound, how does the activation read?
Answer: 0.51% (inactive)

Question: With `O=C(NCc1ccccc1)C1CCCN(S(=O)(=O)c2ccc(-n3cnnn3)cc2)C1` (stereo not drawn) as the compound, how does the activation read?
Answer: 1.85% (inactive)

Question: With `Cc1c(O)nc2ccccn2c1=O` as the compound, how does the activation read?
Answer: 0.171% (inactive)

Question: Which activation does the source give for `CC(C)C[C@@H]1COc2cc(N3CCC[C@H]3CO)ccc2S(=O)(=O)N1` here?
Answer: -0.153% (inactive)

Question: With `Cc1noc(C)c1COc1ccc(C(=O)N2CCC(C)CC2)cc1` as the compound, how does the activation read?
Answer: 8.94% (inactive)

Question: Which activation does the source give for `CC(C)NC(=O)N(C)C[C@@H]1Oc2c(NC(=O)c3ccc(-c4nccs4)cc3)cccc2C(=O)N([C@H](C)CO)C[C@H]1C` here?
Answer: -0.093% (inactive)

Question: With `C[C@H](CO)N1C[C@H](C)[C@@H](CN(C)Cc2ccc(-c3ccccc3)cc2)Oc2c(NC(=O)Nc3cccc4ccccc34)cccc2C1=O` as the compound, how does the activation read?
Answer: 1.82% (inactive)

Question: For `C[C@@H]1CN([C@H](C)CO)C(=O)c2cc(NS(=O)(=O)c3ccc(F)cc3)ccc2O[C@@H](C)CCCCO[C@@H]1CN(C)S(C)(=O)=O`, which activation is on record?
Answer: 3.44% (inactive)

Question: Which activation does the source give for `C[C@H](CO)N1C[C@H](C)[C@H](CN(C)Cc2ccncc2)Oc2c(NC(=O)Nc3ccc(F)cc3)cccc2C1=O` here?
Answer: -0.19% (inactive)

Question: Which activation does the source give for `C[C@@H]1CN([C@@H](C)CO)C(=O)Cc2cc(NC(=O)Nc3ccc(F)cc3)ccc2O[C@H]1CN(C)C(=O)Nc1ccc(C(F)(F)F)cc1` here?
Answer: -0.14% (inactive)

Question: For `C[C@@H]1CN([C@H](C)CO)C(=O)Cc2cc(NC(=O)c3ccncc3)ccc2O[C@H]1CN(C)S(C)(=O)=O`, which activation is on record?
Answer: -0.058% (inactive)

Question: For `Cc1ccccc1CNc1ncnc2cc(Cl)ccc12`, which activation is on record?
Answer: 0.221% (inactive)

Question: For `C[C@@H]1CN([C@H](C)CO)C(=O)c2cc(NS(C)(=O)=O)ccc2O[C@H]1CN(C)C(=O)Nc1ccccc1`, which activation is on record?
Answer: -0.057% (inactive)

Question: For `C[C@H]1CN([C@@H](C)CO)C(=O)Cc2cc(NC(=O)C3CCCCC3)ccc2O[C@H]1CN(C)C(=O)NC1CCCCC1`, which activation is on record?
Answer: -0.185% (inactive)

Question: With `Cc1noc(C)c1S(=O)(=O)Nc1ccc2c(c1)C(=O)N([C@H](C)CO)C[C@@H](C)[C@@H](CN(C)Cc1ccc3c(c1)OCO3)O2` as the compound, how does the activation read?
Answer: -0.086% (inactive)

Question: Which activation does the source give for `Cc1cc(C(=O)Nc2ccc(Cl)cc2)n(-c2ccccc2)n1` here?
Answer: 0.412% (inactive)

Question: For `C[C@H](CO)N1C[C@H](C)[C@H](CN(C)Cc2ccc(C(F)(F)F)cc2)Oc2ccc(NS(=O)(=O)c3cn(C)cn3)cc2CC1=O`, which activation is on record?
Answer: -0.066% (inactive)

Question: Which activation does the source give for `COc1ccc(NC(=O)c2cc(-c3cccs3)on2)c(OC)c1` here?
Answer: 1.59% (inactive)

same assay, conditions: HUVEC E-selectin immunostaining, at 21 µM (top of the series), percent of TNF-alpha response over vehicle

Question: Which activation does the source give for `C[C@H]1CN([C@@H](C)CO)C(=O)c2cc(NC(=O)Nc3ccc(F)cc3)ccc2O[C@H]1CN(C)S(=O)(=O)c1cccs1` here?
Answer: 2.05% (inactive)

Question: With `C[C@H](CO)N1C[C@H](C)[C@@H](CN(C)S(C)(=O)=O)Oc2c(NC(=O)C3CCCCC3)cccc2C1=O` as the compound, how does the activation read?
Answer: 0.25% (inactive)

Question: Which activation does the source give for `C[C@@H]1CN([C@H](C)CO)C(=O)c2cccc(NS(=O)(=O)c3cn(C)cn3)c2O[C@H]1CN(C)C(=O)Nc1ccc(F)cc1` here?
Answer: 6% (inactive)

Question: Which activation does the source give for `Cc1noc(C)c1S(=O)(=O)Nc1ccc2c(c1)CC(=O)N([C@H](C)CO)C[C@H](C)[C@@H](CN(C)Cc1ccc(-c3ccccc3)cc1)O2` here?
Answer: -0.276% (inactive)

Question: With `C[C@@H]1CN([C@@H](C)CO)C(=O)Cc2cc(NS(=O)(=O)c3ccc(F)cc3)ccc2O[C@@H]1CN(C)S(=O)(=O)c1ccc(Cl)cc1` as the compound, how does the activation read?
Answer: -0.065% (inactive)

Question: Which activation does the source give for `C[C@@H]1CN([C@H](C)CO)C(=O)c2cccc(NS(=O)(=O)c3ccc(F)cc3)c2O[C@@H]1CN(C)S(=O)(=O)c1cccs1` here?
Answer: -0.042% (inactive)

Question: With `C[C@H]1CN([C@@H](C)CO)C(=O)c2cc(NC(=O)Cn3cnnn3)ccc2O[C@@H]1CN(C)Cc1ccc2c(c1)OCO2` as the compound, how does the activation read?
Answer: -0.073% (inactive)

Question: With `C[C@H]1CN([C@@H](C)CO)C(=O)Cc2cc(NC(=O)Nc3ccc(C(F)(F)F)cc3)ccc2O[C@H]1CN(C)C(=O)Nc1cccc2ccccc12` as the compound, how does the activation read?
Answer: 0.822% (inactive)

Question: Which activation does the source give for `C[C@@H]1CN([C@H](C)CO)C(=O)Cc2cc(NC(=O)Nc3ccc(F)cc3)ccc2O[C@@H]1CN(C)Cc1ccncc1` here?
Answer: -0.095% (inactive)

Question: Which activation does the source give for `C[C@H](CO)N1C[C@H](C)[C@@H](CN(C)Cc2ccc(Cl)c(Cl)c2)Oc2c(NC(=O)CCCCCC(=O)Nc3ccccc3N)cccc2C1=O` here?
Answer: 3.2% (inactive)

Question: With `COc1ccc(S(=O)(=O)N(C)C[C@H]2Oc3ccc(NC(=O)Nc4ccc5c(c4)OCO5)cc3CC(=O)N([C@@H](C)CO)C[C@H]2C)cc1` as the compound, how does the activation read?
Answer: 0.529% (inactive)

Question: Which activation does the source give for `C[C@@H]1CN([C@H](C)CO)S(=O)(=O)c2ccc(-c3ccncc3)cc2O[C@H]1CN(C)Cc1ccc(Oc2ccccc2)cc1` here?
Answer: 23.2% (inactive)
